The source made the active and inactive calls. The calls are words filed in the database; no cut-off is given here.
What was measured:
[1] = Binding affinity to Glutamate receptor 2 Y450F mutant S1S2 ligand binding domain assessed as induction protein vibrational state by time resolved FTIR difference spectra method
[2] = Binding affinity to Glutamate receptor 2 E705D mutant S1S2 ligand binding domain assessed as induction protein vibrational state by time resolved FTIR difference spectra method

## N[C@@H](CCC(=O)O)C(=O)O
[1]
  Activity: Active
[2]
  Activity: Active

From ChEMBL document CHEMBL1221174, “Evolution of glutamate interactions during binding to a glutamate receptor” (Nat Chem Biol, 2005)
